Like-named read-outs stand apart in the source and are kept apart here.
Tests used:
Format in all cases: biochemical
aggrecanase-1 = target: T1, aggrecanase-1 (Homo sapiens, UniProt O75173); assay: Aggrecanase-1 inhibitory action (Particle Assay, GAG release from aggrecan-containing polyacrylamide particles)
T1 sequence (O75173 213-837): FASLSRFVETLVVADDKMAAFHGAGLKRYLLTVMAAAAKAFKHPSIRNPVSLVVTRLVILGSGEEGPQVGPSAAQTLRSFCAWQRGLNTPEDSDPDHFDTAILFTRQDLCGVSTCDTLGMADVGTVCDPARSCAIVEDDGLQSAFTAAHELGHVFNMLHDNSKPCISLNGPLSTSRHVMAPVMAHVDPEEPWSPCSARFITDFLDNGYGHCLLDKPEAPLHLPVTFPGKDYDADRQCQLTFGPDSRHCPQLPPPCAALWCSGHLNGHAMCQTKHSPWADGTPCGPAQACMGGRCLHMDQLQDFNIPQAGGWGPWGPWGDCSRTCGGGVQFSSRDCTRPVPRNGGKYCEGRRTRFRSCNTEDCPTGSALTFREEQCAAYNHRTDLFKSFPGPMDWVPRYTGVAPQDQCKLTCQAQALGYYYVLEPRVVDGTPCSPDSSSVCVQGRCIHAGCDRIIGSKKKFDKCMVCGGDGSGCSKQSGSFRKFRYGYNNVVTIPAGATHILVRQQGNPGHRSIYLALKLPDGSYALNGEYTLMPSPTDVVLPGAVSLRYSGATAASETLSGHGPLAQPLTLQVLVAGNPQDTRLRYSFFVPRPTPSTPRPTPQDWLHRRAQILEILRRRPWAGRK
Method in brief: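 Enzyme and compound incubated with aggrecan-containing polyacrylamide particles in Tris-HCl buffer at 37° C for 15 h. Released GAG in supernatant measured with 1,9-dimethylmethylene blue at 595 nm against chondroitin sulfate standard; % inhibition from enzyme-free and inhibitor-free wells, reported as TC50 (μM).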

MMP-1 = target: T2, MMP-1 (Homo sapiens, UniProt P03956); assay: MMP-1 inhibitory action (Type I collagen Activity Measurement kit, FITC-labeled collagen type I)
T2 sequence (P03956 100-469): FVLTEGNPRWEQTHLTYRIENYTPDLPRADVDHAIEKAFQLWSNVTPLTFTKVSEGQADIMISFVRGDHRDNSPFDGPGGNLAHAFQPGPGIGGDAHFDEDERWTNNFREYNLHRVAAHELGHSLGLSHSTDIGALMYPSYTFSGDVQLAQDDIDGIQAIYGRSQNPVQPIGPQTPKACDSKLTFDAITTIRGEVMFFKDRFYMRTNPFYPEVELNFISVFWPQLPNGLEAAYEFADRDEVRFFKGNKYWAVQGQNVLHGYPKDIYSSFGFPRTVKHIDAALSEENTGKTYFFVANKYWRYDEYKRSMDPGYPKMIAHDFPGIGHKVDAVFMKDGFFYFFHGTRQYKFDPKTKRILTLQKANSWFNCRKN

Recombinant Human MMP-13 = target: T3, Recombinant Human MMP-13 (Homo sapiens, UniProt P45452); assay: MMP-13 inhibitory activity (MMP-13 specific fluorescent substrate with quencher)
T3 construct: purchased R&D systems 511-MM
Method in brief: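 Recombinant human MMP-13 with test compound, reaction started with quenched fluorogenic peptide 7-MCA-Pro-CHA-Gly-NVal-His-Ala-DPA in Tris-HCl buffer, 1 h at 25 °C, stopped with acetic acid. Fluorescence at Ex 325/Em 405 nm; % inhibition versus enzyme-free and inhibitor-free wells, reported as IC50 (μM).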

[1] = Experimental Example 1, read-out: IC50 AG1
[2] = Experimental Example 2, read-out: IC50 MMP1
[3] = Experimental Example 3, read-out: IC50 MMP13
[4] = aggrecanase-1 inhibitory action, read-out: IC50 AG1 (Experimental Example 1)
[5] = MMP-1 inhibitory action, FITC-labeled collagen type I, 37° C. for 3 hr, read-out: IC50 MMP1 (Experimental Example 2)
[6] = Recombinant Human MMP-13, fluorescent substrate, 25° C. for 1 h, read-out: IC50 MMP13 (Experimental Example 3)

Row | Compound | IC50 (aggrecanase-1; [1]) [nM] | IC50 (MMP-1; [2]) [nM] | IC50 (Recombinant Human MMP-13; [3]) [nM] | IC50 (aggrecanase-1; [4]) [nM] | IC50 (MMP-1; [5]) [nM] | IC50 (Recombinant Human MMP-13; [6]) [nM]
1 | CC(=O)NCC1(c2ccccc2)CC1(NS(=O)(=O)c1ccc(-c2ccc(Cl)cc2)s1)C(=O)O (stereo not drawn) [Example 2-376] | < 1000 | ≥ 10000 | < 1000 | – | – | –
2 | O=C(c1cccc(C2CC2(NS(=O)(=O)c2ccc(-c3cc(C(F)(F)F)on3)s2)C(=O)O)c1)N1CCOCC1 (stereo not drawn) [Example 2-258] | – | – | – | < 1000 | ≥ 1000 | < 1000
3 | O=C(CCc1cccc(C2CC2(NS(=O)(=O)c2ccc(-c3ccc(Cl)cc3)s2)C(=O)O)c1)N1CCOCC1 (stereo not drawn) [Example 2-209] | – | – | – | < 100 | ≥ 1000 | < 100
4 | O=C(NC1CC1)c1ccc(S(=O)(=O)NC2(C(=O)O)CC2c2ccccc2)s1 (stereo not drawn) [Example 2-105] | – | – | – | ≥ 10000 | ≥ 10000 | ≥ 10000
5 | O=C(O)C1(NS(=O)(=O)c2ccc(-c3ccc(Cl)cc3)s2)C2CCC(O)c3ccccc3C21 (stereo not drawn) [Example 2-411] | < 100 | < 1000 | < 100 | – | – | –
6 | CC1C(c2ccccc2)C1(NS(=O)(=O)c1ccc(-c2cccc(CN3CCOCC3)c2)s1)C(=O)O (stereo not drawn) [Example 2-540] | ≥ 1000 | ≥ 1000 | < 1000 | – | – | –
7 | Cc1cnn(-c2ccc(S(=O)(=O)N[C@@]3(C(=O)O)C[C@@H]3c3ccccc3)s2)c1 [Example 2-241] | – | – | – | < 1000 | ≥ 1000 | < 100
8 | O=C(O)c1cccc(C2CC2(NS(=O)(=O)c2ccc(-c3ccc(Cl)cc3)s2)C(=O)O)c1 (stereo not drawn) [Example 1-113] | – | – | – | < 100 | ≥ 1000 | < 1000
9 | C[C@]1(c2ccccc2)C[C@@]1(NS(=O)(=O)c1ccc(-c2cccc(NS(C)(=O)=O)c2)s1)C(=O)O [Example 2-453] | ≥ 1000 | ≥ 10000 | < 1000 | – | – | –
10 | O=C(O)[C@]1(NS(=O)(=O)c2ccc(-c3ccc(Cl)cc3)s2)C[C@@H]1c1cccc(NCc2cccnc2)c1 [Example 2-173] | – | – | – | < 100 | ≥ 1000 | < 100
11 | C[C@]1(c2ccccc2)C[C@@]1(NS(=O)(=O)c1ccc(-c2cccnc2)s1)C(=O)O [Example 2-527] | ≥ 1000 | ≥ 1000 | ≥ 1000 | – | – | –
12 | COc1cc2c(cc1OC)CN(S(=O)(=O)N[C@@]1(C(=O)O)C(C)[C@@H]1c1ccccc1)CC2 (stereo partly drawn) [Example 2-528] | ≥ 1000 | ≥ 1000 | ≥ 1000 | – | – | –
13 | O=C(NCCC(F)(F)F)c1ccc(S(=O)(=O)NC2(C(=O)O)CC2c2ccccc2)s1 (stereo not drawn) [Example 2-97] | – | – | – | ≥ 10000 | ≥ 10000 | ≥ 10000
14 | CNC(=O)CCc1ccc([C@H]2C[C@@]2(NS(=O)(=O)c2ccc(-c3cc(C(F)(F)F)on3)s2)C(=O)O)cc1 [Example 2-281] | < 100 | < 1000 | < 100 | – | – | –
15 | O=C(O)c1ccccc1C1CC1(NS(=O)(=O)c1ccc(-c2ccc(Cl)cc2)s1)C(=O)O (stereo not drawn) [Example 2-196] | – | – | – | < 100 | ≥ 1000 | < 100
16 | O=C(O)C1(NS(=O)(=O)c2cn3cc(-c4ccccc4)nc3s2)CC1c1ccccc1 (stereo not drawn) [Example 2-489] | ≥ 1000 | ≥ 10000 | < 100 | – | – | –
17 | O=C(O)C1(CS(=O)(=O)c2ccc(-c3ccc(Cl)cc3)s2)CC1c1ccccc1 (stereo not drawn) [Example 2-187] | – | – | – | ≥ 10000 | ≥ 10000 | ≥ 10000
18 | O=C(O)C1(NS(=O)(=O)c2ccc(-c3ccc(Cl)cc3)cc2)CC1c1cccc(NCc2cnc[nH]2)c1 (stereo not drawn) [Example 1-90] | – | – | – | < 1000 | ≥ 1000 | < 100
19 | O=C(O)[C@]1(NS(=O)(=O)/C=C/c2cccc(Cl)c2)C[C@@H]1c1ccccc1 [Example 2-153] | – | – | – | ≥ 10000 | ≥ 10000 | ≥ 1000
20 | O=C(O)[C@]1(NS(=O)(=O)c2ccc(-n3cc(C(F)(F)F)cn3)nc2)C[C@@H]1c1ccccc1 [Example 2-558] | ≥ 1000 | ≥ 1000 | < 1000 | – | – | –

Row | Compound | IC50 (aggrecanase-1; [1]) [nM] | IC50 (MMP-1; [2]) [nM] | IC50 (Recombinant Human MMP-13; [3]) [nM] | IC50 (aggrecanase-1; [4]) [nM] | IC50 (MMP-1; [5]) [nM] | IC50 (Recombinant Human MMP-13; [6]) [nM]
21 | C[C@]1(c2ccccc2)C[C@@]1(NS(=O)(=O)c1ccc(-c2ccc(C#N)c(F)c2)s1)C(=O)O [Example 2-593] | < 1000 | ≥ 1000 | < 1000 | – | – | –
22 | O=C(OCC1(c2ccccc2)CC1(NS(=O)(=O)c1ccc(-c2cc(C(F)(F)F)on2)s1)C(=O)O)N1CCCCC1 (stereo not drawn) [Example 2-310] | < 1000 | < 1000 | < 100 | – | – | –
23 | O=C(O)C1(NS(=O)(=O)c2ccc(-c3cc(C(F)(F)F)on3)s2)C2CCOc3ccccc3C21 (stereo not drawn) [Example 2-370] | < 100 | < 1000 | < 100 | – | – | –
24 | CCCC#Cc1ccc(S(=O)(=O)N[C@@]2(C(=O)O)C[C@@H]2c2ccccc2)s1 [Example 2-133] | – | – | – | ≥ 10000 | ≥ 10000 | < 1000
25 | CCCC(=O)NCC1(c2ccccc2)CC1(NS(=O)(=O)c1ccc(-c2ccc(Cl)cc2)s1)C(=O)O (stereo not drawn) [Example 2-377] | < 1000 | ≥ 1000 | < 1000 | – | – | –
26 | CC(=O)Nc1cccc(-c2ccc(S(=O)(=O)N[C@@]3(C(=O)O)C[C@]3(C)c3ccccc3)s2)c1 [Example 2-480] | < 1000 | < 1000 | < 100 | – | – | –
27 | O=C(O)C1(NS(=O)(=O)c2ccc(-c3cc(C(F)(F)F)on3)s2)CC1c1cc(CCO)on1 (stereo not drawn) [Example 2-316] | ≥ 1000 | ≥ 10000 | ≥ 10000 | – | – | –
28 | CC1(c2ccc(F)cc2)CC1(NS(=O)(=O)c1ccc(-c2cc(C(F)(F)F)on2)s1)C(=O)O (stereo not drawn) [Example 2-340] | < 1000 | ≥ 10000 | ≥ 1000 | – | – | –
29 | CN(C)CCSCC1(c2ccccc2)CC1(NS(=O)(=O)c1ccc(-c2ccc(Cl)cc2)s1)C(=O)O (stereo not drawn) [Example 2-337] | < 1000 | ≥ 10000 | < 1000 | – | – | –
30 | Cc1cc(C2CC2(NS(=O)(=O)c2ccc(-c3cc(C(F)(F)F)on3)s2)C(=O)O)on1 (stereo not drawn) [Example 2-311] | < 1000 | ≥ 1000 | < 1000 | – | – | –
31 | O=C(O)[C@]1(NS(=O)(=O)/C=C/c2ccc(Cl)cc2)C[C@@H]1c1ccccc1 [Example 2-151] | – | – | – | ≥ 10000 | ≥ 10000 | ≥ 1000
32 | CC1[C@H](c2ccccc2)[C@]1(NS(=O)(=O)N1CCC(OCc2ccc(Cl)cc2)C1)C(=O)O (stereo partly drawn) [Example 2-550] | ≥ 1000 | ≥ 1000 | ≥ 1000 | – | – | –
33 | O=C(O)[C@]1(NS(=O)(=O)c2ccc(-c3cc(C(F)(F)F)on3)o2)C[C@@H]1c1ccccc1 [Example 2-371] | ≥ 1000 | ≥ 10000 | ≥ 1000 | – | – | –
34 | CCOC(=O)CSCC1(c2ccccc2)CC1(NS(=O)(=O)c1ccc(-c2cc(C(F)(F)F)on2)s1)C(=O)O (stereo not drawn) [Example 2-409] | < 1000 | < 1000 | < 100 | – | – | –
35 | O=C(O)[C@]1(NS(=O)(=O)c2ccc3c(c2)Cc2cc(Br)ccc2-3)C[C@@H]1c1ccccc1 [Example 1-91] | – | – | – | < 100 | ≥ 1000 | < 100
36 | COCCN(C)Cc1ccccc1C1CC1(NS(=O)(=O)c1ccc(-c2ccc(Cl)cc2)s1)C(=O)O (stereo not drawn) [Example 2-89] | – | – | – | ≥ 1000 | ≥ 10000 | ≥ 1000
37 | Cn1nc(-c2ccc(S(=O)(=O)NC3(C(=O)O)CC3c3ccccc3)s2)cc1C(F)(F)F (stereo not drawn) [Example 2-16] | – | – | – | ≥ 10000 | ≥ 10000 | < 1000
38 | O=C(O)C1(NS(=O)(=O)c2ccc(-c3ccc(Cl)cc3)s2)CC1c1ccccc1OCc1cccnc1 (stereo not drawn) [Example 2-22] | – | – | – | < 100 | ≥ 10000 | < 100
39 | C[C@]1(c2cccc(F)c2)C[C@@]1(NS(=O)(=O)c1ccc(-c2cc(C(F)(F)F)on2)s1)C(=O)O [Example 2-618] | < 100 | < 1000 | < 1000 | – | – | –
40 | O=C(O)C1(NS(=O)(=O)c2ccc(-c3ccc(Cl)cc3)s2)CC1c1ccccc1OCCO (stereo not drawn) [Example 1-138] | – | – | – | < 100 | ≥ 1000 | < 1000
